In ChEMBL document CHEMBL1147835, “A practical synthesis of the major 3-hydroxy-2-pyrrolidinone metabolite of a potent CDK2/cyclin A inhibitor” (Bioorg Med Chem Lett, 2006):

Key:
A2780 = assay: Antiproliferative activity against human A2780 cells; assay type: functional, cell-based
[1] = target: Cyclin-dependent kinase 2/cyclin A (Homo sapiens, UniProt P24941); assay: Inhibition of CDK2/cyclin A; assay type: protein-complex assay

SMILES	IC50 (A2780) [nM]	IC50 [1] [nM]
C[C@H](C(=O)Nc1cc(C2CC2)n[nH]1)c1ccc(N2CC[C@@H](O)C2=O)cc1	1600	27
C[C@H](C(=O)Nc1cc(C2CC2)n[nH]1)c1ccc(N2CC[C@H](O)C2=O)cc1	2200	27
